Experimental data: patent US20250346629A1, “USE OF D-ENANTIOMERIC PEPTIDE LIGANDS OF MONOMERIC ALPHA-SYNUCLEIN FOR THE THERAPY OF VARIOUS SYNUCLEINOPATHIES” (PRIAVOID GMBH, priority 2021, published 2025)
Square brackets hold non-standard residues; d marks the D form. Peptide text beside a SMILES is read from it.

Tests used:
WT α-syn = WT α-syn (Homo sapiens, UniProt P37840); assay: Single cycle SPR experiment of WT α-syn on CM5-immobilized peptides (FIG. 8); conditions: 1:1 binding model fit, CM5 chip, PBS pH 7.4, 0.005% Tween-20
Method: Each peptide was immobilized on a CM5 sensor chip surface. WT α-syn was injected in a concentration range of 30-500 nM in PBS, PH 7.4, 0.005% (v/v) Tween-20. Regeneration was carried out after every cycle with 2 M Gua-HCl for 2×30 sec. The KDs were determined with a 1:1 binding model fit, as follows: SVD-1a: 15.7 nM; SVD-6a: 14.0 nM; SVD-10a: 12.3 nM.

α-syn PFF oligomers = α-syn PFF oligomers (Homo sapiens, UniProt P37840); assay: Decomposition of PFF oligomers (HPLC-SEC, DLS, AFM; FIG. 17); type: biochemical; conditions: 100 nM monomer-equivalent PFF oligomers, 400 and 1600 nM SVD-1a, 3 days, 37° C., PBS pH 7.4
Method: PFF oligomers were produced as follows. Firstly, insoluble PFF was produced by incubating 300 μM of recombinant α-syn in a LoBind reaction tube (Eppendorf GmbH, GE) with a borosilicate glass bead (d=3.0 mm; Hilgenberg, DE) in 20 mM NaPi, pH 7.0, 150 […] for one week at 37° C. The insoluble PFF was harvested by ultracentrifugation at 100 000×g for 30 min at 4° C., and the pellet was washed several times with 20 mM NaPi, PH 7.0, 150 mM NaCl. The monomer equivalent concentration was determined by measuring the α-syn concentration in the supernatant after the first centrifugation and subtracting this from the start concentration for the fibrillation. The insoluble PFF was resuspended in buffer and frozen at −80° C. with liquid N2. […]
The elimination of PFF oligomers was assessed by SEC and the subsequent detection of the PFF oligomer and monomer peaks. […] The proteins were detected at A214.
The measurements were carried out using a SpectroSize 300 131 (XtalConcepts, GE) device and a sample volume of 1 ml in a sealed quartz cuvette (Hellma Group, GE). […] Data points were recorded every 30 seconds for time-dependent DLS measurements. […]
(A) HPLC-SEC measurement samples were injected onto a Bio SEC-3 column (300 Å, Agilent, USA). The PFF oligomers eluted after approximately 5 min, while the α-syn monomer was detected after approximately 8.6 min. […]

α-syn = α-syn (Homo sapiens, UniProt P37840); assay: Kinetic single-cycle SPR assay with α-syn and immobilized peptides, CMD200M (FIG. 11); type: binding; conditions: kinetic 1:1 interaction model
Method: The measurements were carried out using an 8K-Biacore device (Cytiva, USA). The interactions were measured using single-cycle kinetics experiments. In all assays, the peptide compounds were immobilized as ligands on the sensor surface and recombinant α-syn was injected into the flow as the analyte. […] Surface quenching was carried out with 1 M ethanolamine at pH 8.3. Unless stated otherwise, the kinetic experiments were carried out at a flow rate of 30 μl/min in PBS, pH 7.4. The surface was regenerated between cycles using 30 s injections of 2 M Gua-HCl at 30 μl/min. Data evaluation was performed using the evaluation software Biacore insight v3.0 (Cytiva, USA).
The experiment was carried out as an individual measurement.

How did the Kd (WT α-syn) turn out when CC[C@@H](C)[C@@H](NC(=O)[C@@H](Cc1c[nH]cn1)NC(=O)[C@@H](CCC(=O)O)NC(=O)[C@@H](CCC(N)=O)NC(=O)[C@@H](Cc1c[nH]c2ccccc12)NC(=O)[C@@H](Cc1ccc(O)cc1)NC(=O)[C@H](NC(=O)[C@@H](CCC(=O)O)NC(=O)[C@@H](Cc1c[nH]cn1)NC(=O)[C@H](NC(=O)[C@H]1CCCN1C(=O)[C@@H](CC(C)C)NC(=O)[C@H](N)CCCNC(=N)N)[C@H](C)O)[C@H](C)O)C(=O)N[C@H](Cc1c[nH]c2ccccc12)C(=O)N[C@H](Cc1c[nH]cn1)C(=O)N[C@H](C)C(=O)N[C@H](CCCNC(=N)N)C(=O)N[C@H](CCCNC(=N)N)C(=O)N[C@H](CCCNC(=N)N)C(=O)N[C@H](CCCNC(=N)N)C(=O)N[C@H](CCCNC(=N)N)C(N)=O [SVD-1a, rlpthetywqehiwharrrrr] (H-[dR][dL][dP][dT][dH][dE][dT][dY][dW][dQ][dE][dH][dI][dW][dH][dA][dR][dR][dR][dR][dR]-NH2) was run?
The Kd was 15.7 nM.

And the “effect on PFF oligomers” value (α-syn PFF oligomers)?
Its value is “decomposes the PFF oligomers into α-syn monomers”.

What about the Kd (α-syn; PBS 7.4, individual measurement) of the same compound?
Its Kd is 0.1 nM.

What about the koff (α-syn; PBS 7.4, as printed for SVD-1a) of the same compound?
The koff was 3.13e-05 s⁻¹.
